This test has as its system WEEV replicon. As to the kind of experiment: microbe, parasite or virus in culture. Conditions: Western equine encephalitis virus; for activity at 2 µM: read-out: Activity (% control LUC) 2 μM; for activity at 10 µM: read-out: Activity (% control LUC) 10 μM. In kind it is cell-based, Western equine encephalitis virus.
Where [1] appears, read: read-out: Activity (% control LUC) 50 μM.
The mark [2] stands for this setting: read-out: 50 μM (% control) Luc.

Read-outs that look alike come from different tables or passages of the source.

For the compound `O=C(c1cc2ccccc2n1Cc1ccc(F)cc1)N1CCC(CN2CCCCC2)CC1` [CCG 204055, (1-(4-fluorobenzyl)-1H-indol-2-yl)(4-(piperidin-1-ylmethyl)piperidin-1-yl)methanone], the activity at 2 µM worked out at 89.7% and the activity at 10 µM is 69.9%. Also, under “read-out: Activity IC50 (μM)”, the IC50 worked out at 13.3 µM. Also, the activity at 50 µM under setting [1] stood at 40%.
Turning to `O=C(NCc1ccccc1)C1CCN(C(=O)c2cccn2Cc2ccc(Cl)cc2)CC1` [CCG 204054, N-benzyl-1-(1-(4-chlorobenzyl)-1H-pyrrole-2-carbonyl)piperidine-4-carboxamide], the activity at 2 µM came to 110% and the activity at 10 µM stood at 108%. Besides, the IC50 (read-out: Activity IC50 (μM)) was 54.6 µM. Further, under setting [1], the activity at 50 µM was 74.5%.
Regarding `O=C(c1cc2ccccc2n1Cc1ccc(Cl)cc1)N1CCN(Cc2ccccc2)CC1` [CCG 206327, (4-benzylpiperazin-1-yl)(1-(4-chlorobenzyl)-1H-indol-2-yl)methanone], 11.5 µM corresponded to half-maximal inhibition (IC50). The activity at 50 µM under setting [2] stood at 33.3%.
For `O=C(c1cc2ccccc2n1Cc1ccc(F)cc1)N1CCC(CN2CCOCC2)CC1` [CCG 206502, (1-(4-fluorobenzyl)-1H-indol-2-yl)(4-(morpholinomethyl)piperidin-1-yl)methanone], the 50% inhibitory concentration (IC50) stood at 40.6 µM. Also, under setting [2], the activity at 50 µM was 39.1%.
`CN(Cc1ccccc1)CC1CCN(C(=O)c2cc3ccccc3n2Cc2ccc(F)cc2)CC1` [CCG 206503, (4-((benzyl(methyl)amino)methyl)piperidin-1-yl)(1-(4-fluorobenzyl)-1H-indol-2-yl)methanone] returned an IC50 of 25.1 µM. Further, the activity at 50 µM under setting [2] is 28.2%.
In the case of `O=C(NCC1Cc2ccccc2C1)C1CCN(C(=O)c2cc3ccccc3n2Cc2ccc(Cl)cc2)CC1` [CCG 206382, 1-(1-(4-chlorobenzyl)-1H-indole-2-carbonyl)-N-((2,3-dihydro-1H-inden-2-yl)methyl)piperidine-4-carboxamide], 0.53 µM corresponded to half-maximal inhibition (IC50). Besides, the activity at 50 µM under setting [2] amounted to 25.8%.
Turning to `O=C(c1cc2ccccc2n1Cc1ccc(F)cc1)N1CCC(CNCc2ccccc2)CC1` [CCG 206500, (4-((benzylamino)methyl)piperidin-1-yl)(1-(4-fluorobenzyl)-1H-indol-2-yl)methanone], it took 6.5 µM to reach half-maximal inhibition (IC50). Under setting [2], the activity at 50 µM came to 0%.
In the case of `O=C(NCCc1ccccn1)C1CCN(C(=O)c2cc3ccccc3n2Cc2ccc(Cl)cc2)CC1` [CCG 205456, 1-(1-(4-chlorobenzyl)-1H-indole-2-carbonyl)-N-(2-(pyridin-2-yl)ethyl)piperidine-4-carboxamide], the midpoint of inhibition, the IC50, lay at 22.4 µM. The activity at 50 µM under setting [2] was found to be 24.1%.
Regarding `CN1CCC(CNC(=O)C2CCN(C(=O)c3cc4ccccc4n3Cc3ccc(Cl)cc3)CC2)CC1` [CCG 205429, 1-(1-(4-chlorobenzyl)-1H-indole-2-carbonyl)-N-((1-methylpiperidin-4-yl)methyl)piperidine-4-carboxamide], under setting [2], the activity at 50 µM was determined as 26.8%.
Consider `O=C(NCc1cccc(F)c1)C1CCN(C(=O)c2cc3ccccc3n2Cc2ccc(Cl)cc2)CC1` [CCG 206399, 1-(1-(4-chlorobenzyl)-1H-indole-2-carbonyl)-N-(3-fluorobenzyl)piperidine-4-carboxamide], for which the activity at 50 µM under setting [2] turned out to be 50.4%.
Regarding `O=C(c1cc2ccccc2n1Cc1ccc(F)cc1)N1CCC(C(=O)N2CCCCC2)CC1` [CCG 203945, (1-(4-fluorobenzyl)-1H-indol-2-yl)(4-(piperidine-1-carbonyl)piperidin-1-yl)methanone], the activity at 2 µM came out at 85% and the activity at 10 µM was 64.4%. Further, the IC50 (read-out: Activity IC50 (μM)) was 20 µM. The activity at 50 µM under setting [1] stood at 21.3%.
The compound `CC(C)Cn1c(C(=O)N2CCC(C(=O)N(C)Cc3ccccc3)CC2)cc2ccccc21` [CCG 206332, N-benzyl-1-(1-isobutyl-1H-indole-2-carbonyl)-N-methylpiperidine-4-carboxamide] yielded a concentration for half-maximal inhibition (IC50) of 27.9 µM. Also, the activity at 50 µM under setting [2] turned out to be 1.7%.

The record behind these values is US8846684B2 (priority 2011, dated 2014).
